Patent publication US20250115581A1, “SUBSTITUTED PIPERIDINES AS CK1A DEGRADERS” (Monte Rosa Therapeutics, Inc., priority 2022, published 2025)

Experiments:
CW2 = experiment: Growth inhibition, CyQUANT Direct Cell Proliferation Assay, CW2; assay type: cell-based; conditions: Homo sapiens, CW-2; CW2 cells, 120 to 168 hours
Protocol: (§1) SKCO1, LS180, and LS174T cell lines were purchased from ATCC. CW2 cell line was purchased from Riken. GP2D cell line was purchased from Sigma/ECACC. All cell lines were cultured in manufacturer's recommended media at 37° C., 5% CO2. Briefly, cells were suspended in 200 μL of media and seeded at 300 to 1,800 cells per well in tissue culture treated 96-well plates with black walls and clear bottom. Plates were incubated overnight and initial (TO) read was performed the following day using CyQUANT Direct Cell Proliferation Assay Kit (Thermo Fisher Scientific) according to manufacturer's protocol. All compounds were solubilized in DMSO and prepared at 3-fold serial dilution, using 9 points starting at 30 μM as highest concentration, administered to cells and incubated for 120 to 168 hours, at which point CyQUANT assay measurement was performed using Acumen Cellista instrument (Ex/Em 480/520 nm). Media-only wells were used as blank, and 0.3% DMSO was used as DMSO-treated cell control. Growth inhibition (percent response) was calculated using the following formula in Excel: “=if ([Compound treated Day N]>[Untreated Day 0, AVG], ([Compound treated Day N]− [Untreated Day 0, AVG])/([Untreated Day N]−[Untreated Day 0, AVG])*100, ([Compound Treated Day N]−[Untreated Day 0, AVG])/([Untreated Day 0, AVG])*100)”. GI50 is the response corresponding to the 50% of untreated control.
(§2) GI50 data are reported in Tables 4a, 4b, 4c, 4d, and 4e for compounds in Table 1. In Tables 4a, 4b, 4c, 4d, and 4e below, According to the code, A represents a GI50 value of ≤0.1 μM, B represents a GI50 value >0.1 μM and ≤1 μM, C represents an GI50 value >1 μM.

SKCO1 = experiment: Growth inhibition, CyQUANT Direct Cell Proliferation Assay, SKCO1; assay type: cell-based; conditions: Homo sapiens, SK-CO-1; SKCO1 cells, 120 to 168 hours
Protocol: as §1, §2

LS180 = experiment: Growth inhibition, CyQUANT Direct Cell Proliferation Assay, LS180; assay type: cell-based; conditions: Homo sapiens; LS180 cells, 120 to 168 hours
Protocol: as §1, §2

CRBN/DDB1 = CRBN/DDB1 (Homo sapiens, UniProt Q96SW2); experiment: HTRF binding assay (displacement of Cy5-thalidomide probe from CRBN/DDB1); conditions: CRBN/DDB1 2.5 nM, Cy5-Thalidomide 100 nM, 30 min; geometric mean; read-out: HTRF_Thali_Disp_DR_geo_IC50
Summary of the method: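 HTRF displacement of Cy5-thalidomide probe (100 nM) from His-tagged CRBN/DDB1 (2.5 nM) with anti-His terbium cryptate, in HEPES/NaCl/TCEP/EDTA/Tween20 buffer; 10-point 1:3 series, 30 min at ambient temperature. 665/620 nm ratio fitted 4-parameter logistic for IC50; Ki via Cheng-Prusoff.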

GP2D = experiment: Growth inhibition, CyQUANT Direct Cell Proliferation Assay, GP2D; assay type: cell-based; conditions: GP2D cells, 120 to 168 hours
Protocol: as §1, §2

Chain of CRBN/DDB1 (Q96SW2 whole entry): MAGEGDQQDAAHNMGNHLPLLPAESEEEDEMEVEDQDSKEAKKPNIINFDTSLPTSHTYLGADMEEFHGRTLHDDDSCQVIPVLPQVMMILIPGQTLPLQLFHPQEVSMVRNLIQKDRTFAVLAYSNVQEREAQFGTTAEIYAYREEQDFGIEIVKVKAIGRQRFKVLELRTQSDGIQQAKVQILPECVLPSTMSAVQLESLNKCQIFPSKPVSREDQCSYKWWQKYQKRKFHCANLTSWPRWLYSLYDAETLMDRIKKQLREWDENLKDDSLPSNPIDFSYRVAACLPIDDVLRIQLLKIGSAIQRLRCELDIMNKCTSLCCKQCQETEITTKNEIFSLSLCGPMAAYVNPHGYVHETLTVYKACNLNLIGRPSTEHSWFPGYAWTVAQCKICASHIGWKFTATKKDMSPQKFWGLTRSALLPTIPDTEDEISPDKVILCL
Chain of CRBN/DDB1 (Q16531 whole entry partner): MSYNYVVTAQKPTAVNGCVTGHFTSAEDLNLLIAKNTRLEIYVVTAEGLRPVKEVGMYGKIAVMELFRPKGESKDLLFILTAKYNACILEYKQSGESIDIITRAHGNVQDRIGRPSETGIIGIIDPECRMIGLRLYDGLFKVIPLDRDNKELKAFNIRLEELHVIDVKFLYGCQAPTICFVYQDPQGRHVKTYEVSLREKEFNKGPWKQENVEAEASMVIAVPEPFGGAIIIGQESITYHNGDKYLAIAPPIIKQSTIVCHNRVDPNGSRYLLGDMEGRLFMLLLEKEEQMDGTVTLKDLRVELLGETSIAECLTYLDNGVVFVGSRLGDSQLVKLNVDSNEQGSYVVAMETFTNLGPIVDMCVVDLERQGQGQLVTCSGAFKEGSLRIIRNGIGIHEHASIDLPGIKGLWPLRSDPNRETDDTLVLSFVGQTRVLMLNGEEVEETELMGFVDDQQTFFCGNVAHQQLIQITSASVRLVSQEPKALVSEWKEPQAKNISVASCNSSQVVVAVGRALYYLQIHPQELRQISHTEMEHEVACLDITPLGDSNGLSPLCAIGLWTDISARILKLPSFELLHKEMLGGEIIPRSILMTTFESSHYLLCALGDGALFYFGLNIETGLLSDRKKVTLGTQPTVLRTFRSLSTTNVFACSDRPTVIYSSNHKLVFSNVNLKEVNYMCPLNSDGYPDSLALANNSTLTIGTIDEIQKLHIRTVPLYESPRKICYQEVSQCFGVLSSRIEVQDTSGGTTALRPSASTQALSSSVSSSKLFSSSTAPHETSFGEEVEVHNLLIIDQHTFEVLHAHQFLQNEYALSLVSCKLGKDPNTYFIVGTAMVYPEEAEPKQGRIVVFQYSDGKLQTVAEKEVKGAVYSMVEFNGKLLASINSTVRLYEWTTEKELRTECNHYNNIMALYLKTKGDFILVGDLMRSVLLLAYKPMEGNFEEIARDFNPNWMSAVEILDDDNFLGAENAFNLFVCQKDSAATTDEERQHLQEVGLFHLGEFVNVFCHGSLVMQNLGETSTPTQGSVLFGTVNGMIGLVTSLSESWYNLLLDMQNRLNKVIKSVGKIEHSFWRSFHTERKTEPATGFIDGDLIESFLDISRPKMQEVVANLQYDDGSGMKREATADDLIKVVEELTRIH

GI50 (SKCO1) [nM]	IC50 (CRBN/DDB1) [nM]	SMILES	GI50 (CW2) [nM]	GI50 (LS180) [nM]	GI50 (GP2D) [nM]
100 to 1000	100 to 1000	O=C1CCC(N2Cc3cc(N4CCN(c5ccccc5)C4=O)ccc3C2=O)C(=O)N1 (centres unmarked) [Compound 101, 3-(1-oxo-5-(2-oxo-3-phenylimidazolidin-1-yl)isoindolin-2-yl)piperidine-2,6-dione]	100 to 1000	> 1000	> 1000
100 to 1000	100 to 1000	C[C@@H]1CN(c2ccc3c(c2)CN(C2CCC(=O)NC2=O)C3=O)C(=O)N1c1ccccc1 (stereo partly drawn) [Compound 107, 3-(5-((R)-4-methyl-2-oxo-3-phenylimidazolidin-1-yl)-1-oxoisoindolin-2-yl)piperidine-2,6-dione]	≤ 100		100 to 1000
≤ 100	100 to 1000	C[C@@H]1CN(c2ccc3c(c2)CN(C2CCC(=O)NC2=O)C3=O)C(=O)N1c1ccc(C2CC2)cc1 (stereo partly drawn) [Compound 125, 3-(5-((R)-3-(4-cyclopropylphenyl)-4-methyl-2-oxoimidazolidin-1-yl)-1-oxoisoindolin-2-yl)piperidine-2,6-dione]	≤ 100	100 to 1000	100 to 1000
